Values of other authors in patent US9522876B2, “Cytotoxic and anti-mitotic compounds, and methods of using the same” (ZYMEWORKS INC., priority 2013, dated 2016).

System: cells
Conditions: related art

For CN[C@H](C(=O)N[C@H](C(=O)N(C)[C@H](/C=C(\C)C(=O)O)C(C)C)C(C)(C)C)C(C)(C)c1ccccc1 [HT1-286], the anti-mitotic activity is given as “potent anti-mitotic activity”.
For CN[C@H](C(=O)N[C@H](C(=O)N(C)[C@H](/C=C(\C)C(=O)O)C(C)C)C(C)(C)C)C(C)(C)c1cn(C)c2ccccc12 [hemiasterlin], the anti-mitotic activity is given as “causes microtubule depolymerization and mitotic arrest in cells”.
